Several values for one entry are separate records, joined by “and”; a condition that tells them apart may be missing. Identical values can stand only once. Like-named read-outs stand apart in the source and are kept apart here.
Tests used:
GlyRα1/GlyT2 [1] = molecular target: GlyRα1/GlyT2 (Homo sapiens, UniProt P23415); assay: Two-electrode voltage clamp, oocytes co-expressing GlyRα1/GlyT2; assay type: cell-based
From the text: (§1) Human GlyT1b and GlyT2a WT cDNA were subcloned into the plasmid oocyte transcription vector (pOTV) and human GlyRα1, GlyRα3 and GlyRβ into pGEMHE. GlyR cDNA pGEMHE vectors were provided by Mary Collins at the University of Sydney (Sydney, Australia). Single point mutations were introduced into GlyRα1 using the Q5 site-directed mutagenesis kit (New England Biolabs (Genesearch), Arundel, Australia) with oligonucleotide primers (Merck, Sydney, Australia) containing the desired mutations. The amplified cDNA/pOTV or cDNA/pGEMHE product was then transformed in E. coli cells, and subsequently purified using the PureLink Quick Plasmid Miniprep Kit (Invitrogen by Life Technologies, Löhne, Germany), and sequenced by the Australian Genome Research Facility (Sydney, Australia). The purified plasmid DNA was linearised via the restriction enzyme, SpeI (New England Biolabs (Genesearch), Arundel, Australia) for GlyT1b and GlyT2a (henceforth referred to as GlyT1 and GlyT2 respectively) and NheI (New England Biolabs (Genesearch)) for GlyRα1, GlyRα3 and GlyRβ. Complementary RNAs were synthesised using the mMESAGE mMACHINE T7 kit (Ambion, Austin, TX, USA).
(§2) All work involving the use of animals was performed in accordance with the Australian Code of Practice for the Care and Use of Animals for Scientific Purposes and approved by the University of Sydney Animal Ethics Committee (Approval numbers 2016/970 and 2020/1704). […] The oocytes were then stored in frog Ringer’s solution (96 mM NaCl, 2 mM KCl, 1 mM MgCl2, 1.8 mM CaCl2, 5 mM HEPES, pH 7.5) which was supplemented with 2.5 mM sodium pyruvate, 0.5 mM theophylline, 50 μg/mL gentamicin and […] tetracycline. The oocytes were stored at 18 °C for 3–5 days, until transporter and receptor expression were adequate for measurement using the two-electrode voltage clamp technique.
(§3) GlyT1, GlyT2, GlyRα1, GlyRα3, GlyRα1β and GlyRα3β are electrogenic, allowing activation to be measured via the two-electrode voltage clamp technique. Oocytes were voltage clamped at −60 mV, and whole-cell currents generated by the substrate were recorded with a Geneclamp 500 amplifier (Axon Instruments, Foster City, CA, USA), digitised by a Powerlab 2/20 chart recorder (ADInstruments, Sydney, Australia). LabChart version 8 software (ADInstruments, Sydney, Australia) was used to visualise and process current traces. Recordings were performed in frog Ringer’s solution, except for low Na^+ experiments where Na^+ was replaced with choline. Oocytes were placed in an oval-shaped bath with a volume of 0.3 mL, with laminar flow around the oocyte at a rate of 12 mL min^−1 under gravity feed.
(§4) Varying concentrations of substrate or agonist were applied to cells in ND96. […]

GlyRα1 [2] = molecular target: T1, GlyRα1 (Homo sapiens, UniProt P23415); assay: Two-electrode voltage clamp, Xenopus laevis oocytes expressing GlyRα1 alone; assay type: cell-based; details: for nH of glycine dose-response in the presence of lipid: 1 µM lipid, fast-flow
T1 construct: expressed in transfected cells; host or cells: Xenopus laevis oocytes (cRNA injection)
T1 sequence (P23415 29-457): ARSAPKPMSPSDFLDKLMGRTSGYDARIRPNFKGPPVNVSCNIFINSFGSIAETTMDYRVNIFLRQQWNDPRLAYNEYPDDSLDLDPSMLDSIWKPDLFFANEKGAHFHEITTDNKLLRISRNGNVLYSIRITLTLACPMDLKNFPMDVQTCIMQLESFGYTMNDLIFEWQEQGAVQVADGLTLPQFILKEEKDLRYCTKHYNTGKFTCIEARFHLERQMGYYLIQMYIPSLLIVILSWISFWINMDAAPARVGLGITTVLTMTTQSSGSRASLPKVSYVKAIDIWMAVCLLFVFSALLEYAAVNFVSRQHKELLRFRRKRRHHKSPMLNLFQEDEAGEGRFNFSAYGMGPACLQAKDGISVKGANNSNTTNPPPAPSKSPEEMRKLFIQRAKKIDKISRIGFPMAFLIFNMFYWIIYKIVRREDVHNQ
From the text: as §1, §2, §3
(§5) Varying concentrations of substrate or agonist were applied to cells in ND96.
(§6) Flow of the solution was stopped until the current plateaued, by manually closing a three-way valve on one end of the bath such that the solution in the bath was static and is referred to henceforth as ‘stop-flow’.

GlyRα1/GlyT1 [3] = molecular target: T2, GlyRα1/GlyT1 (Homo sapiens, UniProt P23415); assay: Two-electrode voltage clamp, oocytes co-expressing GlyRα1/GlyT1; assay type: cell-based
T2 construct: expressed in transfected cells; host or cells: Xenopus laevis oocytes (cRNA co-injection)
T2 sequence (P23415 29-457): T1 sequence (P23415 29-457)
From the text: as §1, §2, §3, §5, §6

GlyRα1/GlyT2 [4] = assay: Two-electrode voltage clamp, oocytes co-expressing GlyRα1/GlyT2; assay type: cell-based, human; details: 1 µM strychnine; for GlyT contribution to overall peak current (current in presence of strychnine as % of current without): fast-flow peak; for GlyT contribution to stopped flow current (current in presence of strychnine as % of current without): stop-flow
From the text: as §1, §2, §3, §4

GlyRα1/GlyT1 [5] = assay: Two-electrode voltage clamp, oocytes co-expressing GlyRα1/GlyT1; assay type: cell-based, human; details: 1 µM strychnine; for GlyT contribution to overall peak current (current in presence of strychnine as % of current without): fast-flow peak; for GlyT contribution to stopped flow current (current in presence of strychnine as % of current without): stop-flow
From the text: as §1, §2, §3, §5, §6

GlyRα1 [6] = details: cited from earlier work; for GlyRα1 Potentiation at EC5 (%): % stimulation of glycine EC5 caused by 1 µM lipid
GlyT2 = details: cited from earlier work; for GlyT2 Activity: % Inhibition (1 µM): 1 µM lipid, inhibition of glycine transport; for IC50: inhibition of glycine transport by GlyT2; for GlyT2 Activity: Max inhibition (%): maximal level of inhibition observed
GlyRα1/GlyT1 [7] = molecular target: T3, GlyRα1/GlyT1 (Homo sapiens, UniProt P48067); assay: Two-electrode voltage clamp, oocytes co-expressing GlyRα1/GlyT1; assay type: cell-based; details: 1 μM ALX-5407; 1 mM Na+ buffer
T3 construct: expressed in transfected cells; host or cells: Xenopus laevis oocytes (cRNA co-injection)
T3 sequence (P48067 1-652 isoform P48067-3): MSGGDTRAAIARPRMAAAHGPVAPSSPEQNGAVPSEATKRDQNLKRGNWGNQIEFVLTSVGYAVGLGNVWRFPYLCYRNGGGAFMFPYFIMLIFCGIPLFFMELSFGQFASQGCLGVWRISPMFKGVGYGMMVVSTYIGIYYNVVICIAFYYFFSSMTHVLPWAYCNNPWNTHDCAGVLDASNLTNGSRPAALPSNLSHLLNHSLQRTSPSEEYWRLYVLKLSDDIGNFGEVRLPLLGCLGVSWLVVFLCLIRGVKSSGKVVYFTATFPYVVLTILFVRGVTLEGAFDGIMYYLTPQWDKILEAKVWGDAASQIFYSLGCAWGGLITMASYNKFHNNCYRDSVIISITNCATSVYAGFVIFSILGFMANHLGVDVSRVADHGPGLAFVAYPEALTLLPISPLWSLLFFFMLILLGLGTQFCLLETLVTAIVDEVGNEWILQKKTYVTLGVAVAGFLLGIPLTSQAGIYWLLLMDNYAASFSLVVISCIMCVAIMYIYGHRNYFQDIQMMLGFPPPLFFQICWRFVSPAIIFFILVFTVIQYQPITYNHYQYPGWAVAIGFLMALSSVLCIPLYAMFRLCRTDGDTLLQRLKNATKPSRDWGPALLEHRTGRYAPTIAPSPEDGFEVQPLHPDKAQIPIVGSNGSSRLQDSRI
From the text: as §1, §2, §3, §5, §6

GlyT1 = details: cited from earlier work
[8] = non-transportable GlyR agonist, read-out: β-alanine EC50

GlyRα1/GlyT2 (Homo sapiens, UniProt P23415), sequence (Q9Y345 whole entry partner, one chain of several): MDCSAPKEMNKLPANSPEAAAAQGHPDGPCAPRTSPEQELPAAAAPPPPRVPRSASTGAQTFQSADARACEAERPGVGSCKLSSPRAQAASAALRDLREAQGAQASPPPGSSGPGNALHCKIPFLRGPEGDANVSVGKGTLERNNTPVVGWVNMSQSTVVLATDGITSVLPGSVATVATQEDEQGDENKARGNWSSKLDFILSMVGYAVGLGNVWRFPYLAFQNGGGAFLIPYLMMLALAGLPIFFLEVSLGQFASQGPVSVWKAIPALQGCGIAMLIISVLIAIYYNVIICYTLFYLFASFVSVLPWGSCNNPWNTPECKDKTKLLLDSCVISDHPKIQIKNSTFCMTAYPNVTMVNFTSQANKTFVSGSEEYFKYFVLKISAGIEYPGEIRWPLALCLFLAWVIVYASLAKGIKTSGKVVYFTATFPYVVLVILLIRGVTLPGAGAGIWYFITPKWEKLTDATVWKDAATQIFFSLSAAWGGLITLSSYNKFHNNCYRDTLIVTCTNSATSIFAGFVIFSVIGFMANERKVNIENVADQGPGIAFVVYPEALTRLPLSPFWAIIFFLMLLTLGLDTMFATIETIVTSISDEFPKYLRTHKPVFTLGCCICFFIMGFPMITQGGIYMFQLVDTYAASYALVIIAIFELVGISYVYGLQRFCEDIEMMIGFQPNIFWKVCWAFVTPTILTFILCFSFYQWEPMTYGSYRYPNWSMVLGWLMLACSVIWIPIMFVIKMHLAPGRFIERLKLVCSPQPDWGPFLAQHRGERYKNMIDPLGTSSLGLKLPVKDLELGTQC

## NCCC(=O)O [β-alanine]
GlyRα1/GlyT2 [1]
  EC50: 27.4 µM
GlyRα1 [2]; [8]
  EC50: 28.3 µM
GlyRα1/GlyT1 [3]; [8]
  EC50: 28 µM

## O=C1C[C@@H]2OCC=C3CN4CC[C@]56c7ccccc7N1[C@H]5[C@H]2[C@H]3C[C@H]46 [strychnine]
GlyRα1/GlyT2 [4]; 10 µM glycine
  GlyT contribution to overall peak current (current in presence of strychnine as % of current without): 16.6 ± 3.7%
  GlyT contribution to stopped flow current (current in presence of strychnine as % of current without): 16.2 ± 2.1%
GlyRα1/GlyT2 [4]; 30 µM glycine
  GlyT contribution to overall peak current (current in presence of strychnine as % of current without): 1.7 ± 0.4%
  GlyT contribution to stopped flow current (current in presence of strychnine as % of current without): 1.6 ± 0.4%
GlyRα1/GlyT1 [5]; 10 µM glycine
  GlyT contribution to overall peak current (current in presence of strychnine as % of current without): 53.2 ± 6.9%
  GlyT contribution to stopped flow current (current in presence of strychnine as % of current without): 61.5 ± 13.9%
GlyRα1/GlyT1 [5]; 30 µM glycine
  GlyT contribution to overall peak current (current in presence of strychnine as % of current without): 14.4 ± 1.8%
  GlyT contribution to stopped flow current (current in presence of strychnine as % of current without): 5.2 ± 1.3%

## CCCCCCCCC=CCCCCCCCC(=O)NC(CCSC)C(=O)O [C18-cis-ω9-L-methionine]
GlyRα1 [2]
  nH of glycine dose-response in the presence of lipid: 2.2 ± 0.3 ns
GlyRα1 [6]
  GlyRα1 Potentiation at EC5 (%): 2.2 ± 4.2% and 2.2 ± 4.2 (6) %
GlyT2
  GlyT2 Activity: % Inhibition (1 µM): 84.9 ± 0.07%
  IC50: 0.0292 µM
  GlyT2 Activity: Max inhibition (%): 91.2%

## CCCCCC/C=C\CCCCCCCCCC(=O)NCC(=O)O [C18-cis-ω7-glycine]
GlyRα1 [2]
  nH of glycine dose-response in the presence of lipid: 2.8 ± 0.3 ns
GlyRα1 [6]
  GlyRα1 Potentiation at EC5 (%): 184.7 ± 41.3 (5) %
GlyT2
  GlyT2 Activity: % Inhibition (1 µM): 10.5 ± 0.02%
  IC50: > 10 µM

## CCCCCCCC/C=C\CCCCCCCC(=O)NCC(=O)O [C18-cis-ω9-glycine]
GlyRα1 [2]
  nH of glycine dose-response in the presence of lipid: 2.4 ± 0.2 ns
GlyRα1 [6]
  GlyRα1 Potentiation at EC5 (%): 84.7 ± 14.0%
GlyRα1 [6]; listed as 18-cis-ω9-glycine
  GlyRα1 Potentiation at EC5 (%): 84.7 ± 14.0 (8) %
GlyRα1 [6]; dose-dependent
  effect on Imax of GlyRα1: increases
  effect on glycine EC50 of GlyRα1: decreases
GlyT2
  GlyT2 Activity: % Inhibition (1 µM): 50.1 ± 0.06%
  IC50: 0.031 µM
  GlyT2 Activity: Max inhibition (%): 95.0%
GlyT2; listed as 18-cis-ω9-glycine
  GlyT2 Activity: % Inhibition (1 µM): 89.6 ± 0.01%

## CN(CC[C@@H](Oc1ccc(-c2ccccc2)cc1)c1ccc(F)cc1)CC(=O)O [ALX-5407]
GlyRα1/GlyT1 [3]; 1 µM inhibitor, fast-flow
  nH of glycine dose-response in the presence of GlyT inhibitor: 2.0 ± 0.2 ns
GlyRα1/GlyT1 [7]
  stopped flow increase in current amplitude (reverse glycine transport / efflux): prevents
GlyT1
  IC50: 0.003 µM
